Measured values published in PubChem BioAssay (NCI).
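Interpolation was linear, between the two tested concentrations surrounding the appropriate level; five concentrations were tested over 48 hours in 96-well plates. At the TGI there is no net growth.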

Experiments:
Assay in all cases: NCI tumour cell line growth inhibition, 48 h
A549 NSCLC = test system: A549 NSCLC
OVCAR-5 ovarian = test system: OVCAR-5 ovarian
NCI-H23 lung = test system: NCI-H23 lung
OVCAR-8 ovarian = test system: OVCAR-8 ovarian
DU-145 prostate = test system: DU-145 prostate
SK-MEL-28 melanoma = test system: SK-MEL-28 melanoma
CAKI-1 renal = test system: CAKI-1 renal
SNB-75 CNS = test system: SNB-75 CNS
RPMI-8226 leukemia = test system: RPMI-8226 leukemia
UO-31 renal = test system: UO-31 renal
SK-OV-3 ovarian = test system: SK-OV-3 ovarian
U251 CNS = test system: U251 CNS
SK-MEL-5 melanoma = test system: SK-MEL-5 melanoma
SK-MEL-2 melanoma = test system: SK-MEL-2 melanoma
OVCAR-4 ovarian = test system: OVCAR-4 ovarian
K-562 leukemia = test system: K-562 leukemia
BT-549 breast = test system: BT-549 breast
ACHN renal = test system: ACHN renal
MOLT-4 leukemia = test system: MOLT-4 leukemia
MALME-3M melanoma = test system: MALME-3M melanoma
SF-268 CNS = test system: SF-268 CNS
NCI-H522 lung = test system: NCI-H522 lung
A498 renal = test system: A498 renal
HCT-116 colon = test system: HCT-116 colon
UACC-257 melanoma = test system: UACC-257 melanoma
UACC-62 melanoma = test system: UACC-62 melanoma
MCF7 breast = test system: MCF7 breast
RXF 393 renal = test system: RXF 393 renal
CCRF-CEM leukemia = test system: CCRF-CEM leukemia
EKVX NSCLC = test system: EKVX NSCLC
TK-10 renal = test system: TK-10 renal
SR leukemia = test system: SR leukemia
HCC-2998 colon = test system: HCC-2998 colon
NCI-H460 lung = test system: NCI-H460 lung
OVCAR-3 ovarian = test system: OVCAR-3 ovarian
MDA-MB-435 = test system: MDA-MB-435
LOX IMVI melanoma = test system: LOX IMVI melanoma
SW-620 colon = test system: SW-620 colon
MDA-MB-231 breast = test system: MDA-MB-231 breast
IGROV1 ovarian = test system: IGROV1 ovarian
PC-3 prostate = test system: PC-3 prostate
SF-295 CNS = test system: SF-295 CNS
COLO 205 colon = test system: COLO 205 colon
KM12 colon = test system: KM12 colon
NCI/ADR-RES ovarian = test system: NCI/ADR-RES ovarian
HCT-15 colon = test system: HCT-15 colon
SF-539 CNS = test system: SF-539 CNS
HS 578T breast = test system: HS 578T breast
HOP-92 NSCLC = test system: HOP-92 NSCLC
SNB-19 CNS = test system: SNB-19 CNS
HOP-62 NSCLC = test system: HOP-62 NSCLC
HT29 colon = test system: HT29 colon
T-47D breast = test system: T-47D breast
MDA-N = test system: MDA-N
SN12C renal = test system: SN12C renal
M14 melanoma = test system: M14 melanoma
NCI-H226 lung = test system: NCI-H226 lung
786-0 renal = test system: 786-0 renal
HL-60(TB) leukemia = test system: HL-60(TB) leukemia

In the case of `CC(C)CC(=O)OC[n+]1cccc(-c2c(COC(=O)NC(C)C)c(COC(=O)NC(C)C)c3n2CCC3)c1`, the TGI (A549 NSCLC) is reported as greater than 100 µM, the TGI (OVCAR-5 ovarian) is reported as greater than 100 µM and the TGI (NCI-H23 lung) is reported as greater than 100 µM. For the same compound, the TGI (OVCAR-8 ovarian) was greater than 100 µM, the TGI (DU-145 prostate) was 79.7 µM and the TGI (SK-MEL-28 melanoma) was greater than 100 µM. The TGI (CAKI-1 renal) was 73.9 µM, the TGI (SNB-75 CNS) was greater than 100 µM and the TGI (RPMI-8226 leukemia) was greater than 100 µM. For the same compound, the TGI (UO-31 renal) was 91.6 µM, the TGI (SK-OV-3 ovarian) was greater than 100 µM and the TGI (U251 CNS) was greater than 100 µM. It also gave a TGI (SK-MEL-5 melanoma) greater than 100 µM, a TGI (SK-MEL-2 melanoma) greater than 100 µM and a TGI (OVCAR-4 ovarian) greater than 100 µM. The TGI (K-562 leukemia) was greater than 100 µM, the TGI (BT-549 breast) was greater than 100 µM and the TGI (ACHN renal) was greater than 100 µM. The TGI (MOLT-4 leukemia) was greater than 100 µM, the TGI (MALME-3M melanoma) was greater than 100 µM and the TGI (SF-268 CNS) was greater than 100 µM. The TGI (NCI-H522 lung) was 49.2 µM, the TGI (A498 renal) was 59 µM and the TGI (HCT-116 colon) was greater than 100 µM. It also gave a TGI (UACC-257 melanoma) greater than 100 µM, a TGI (UACC-62 melanoma) greater than 100 µM and a TGI (MCF7 breast) greater than 100 µM. For the same compound, the TGI (RXF 393 renal) was greater than 100 µM, the TGI (CCRF-CEM leukemia) was greater than 100 µM and the TGI (EKVX NSCLC) was greater than 100 µM. It also gave a TGI (TK-10 renal) greater than 100 µM, a TGI (SR leukemia) greater than 100 µM and a TGI (HCC-2998 colon) greater than 100 µM. It also gave a TGI (NCI-H460 lung) greater than 100 µM, a TGI (OVCAR-3 ovarian) greater than 100 µM and a TGI (MDA-MB-435) greater than 100 µM. It also gave a TGI (LOX IMVI melanoma) greater than 100 µM, a TGI (SW-620 colon) greater than 100 µM and a TGI (MDA-MB-231 breast) greater than 100 µM. The TGI (IGROV1 ovarian) was greater than 100 µM, the TGI (PC-3 prostate) was greater than 100 µM and the TGI (SF-295 CNS) was greater than 100 µM. It also gave a TGI (COLO 205 colon) greater than 100 µM, a TGI (KM12 colon) greater than 100 µM and a TGI (NCI/ADR-RES ovarian) greater than 100 µM. The TGI (HCT-15 colon) was greater than 100 µM, the TGI (SF-539 CNS) was greater than 100 µM and the TGI (HS 578T breast) was greater than 100 µM. The TGI (HOP-92 NSCLC) was 76.9 µM, the TGI (SNB-19 CNS) was greater than 100 µM and the TGI (HOP-62 NSCLC) was greater than 100 µM. For the same compound, the TGI (HT29 colon) was greater than 100 µM, the TGI (T-47D breast) was greater than 100 µM and the TGI (MDA-N) was greater than 100 µM. The TGI (SN12C renal) was greater than 100 µM, the TGI (M14 melanoma) was greater than 100 µM and the TGI (NCI-H226 lung) was greater than 100 µM. For the same compound, the TGI (786-0 renal) was 97.7 µM.
Work on `Cc1nc(Cl)c(C)c(Cl)n1` yielded a TGI (A549 NSCLC) greater than 100 µM, a TGI (OVCAR-5 ovarian) greater than 100 µM and a TGI (NCI-H23 lung) greater than 100 µM. It also gave a TGI (OVCAR-8 ovarian) greater than 100 µM, a TGI (DU-145 prostate) greater than 100 µM and a TGI (SK-MEL-28 melanoma) greater than 100 µM. It also gave a TGI (CAKI-1 renal) of 0.0695 µM, a TGI (SNB-75 CNS) greater than 100 µM and a TGI (RPMI-8226 leukemia) greater than 100 µM. The TGI (SK-OV-3 ovarian) was greater than 100 µM, the TGI (U251 CNS) was greater than 100 µM and the TGI (SK-MEL-5 melanoma) was greater than 100 µM. It also gave a TGI (SK-MEL-2 melanoma) greater than 100 µM, a TGI (OVCAR-4 ovarian) greater than 100 µM and a TGI (K-562 leukemia) greater than 91.9 µM. The TGI (BT-549 breast) was greater than 100 µM, the TGI (ACHN renal) was greater than 100 µM and the TGI (MOLT-4 leukemia) was greater than 100 µM. For the same compound, the TGI (MALME-3M melanoma) was greater than 100 µM, the TGI (SF-268 CNS) was greater than 100 µM and the TGI (A498 renal) was greater than 100 µM. For the same compound, the TGI (HCT-116 colon) was greater than 100 µM, the TGI (UACC-257 melanoma) was greater than 100 µM and the TGI (UACC-62 melanoma) was greater than 100 µM. The TGI (MCF7 breast) was greater than 100 µM, the TGI (RXF 393 renal) was greater than 100 µM and the TGI (CCRF-CEM leukemia) was greater than 100 µM. The TGI (EKVX NSCLC) was greater than 50.9 µM, the TGI (TK-10 renal) was greater than 100 µM and the TGI (SR leukemia) was 71.8 µM. It also gave a TGI (HCC-2998 colon) greater than 100 µM, a TGI (NCI-H460 lung) greater than 100 µM and a TGI (OVCAR-3 ovarian) greater than 100 µM. It also gave a TGI (MDA-MB-435) greater than 100 µM, a TGI (LOX IMVI melanoma) greater than 100 µM and a TGI (SW-620 colon) greater than 100 µM. The TGI (MDA-MB-231 breast) was greater than 100 µM, the TGI (IGROV1 ovarian) was 34.5 µM and the TGI (PC-3 prostate) was greater than 100 µM. It also gave a TGI (SF-295 CNS) greater than 100 µM, a TGI (COLO 205 colon) greater than 100 µM and a TGI (KM12 colon) greater than 100 µM. It also gave a TGI (NCI/ADR-RES ovarian) greater than 100 µM, a TGI (HCT-15 colon) greater than 100 µM and a TGI (SF-539 CNS) greater than 100 µM. It also gave a TGI (HS 578T breast) greater than 100 µM, a TGI (SNB-19 CNS) greater than 100 µM and a TGI (HOP-62 NSCLC) greater than 100 µM. It also gave a TGI (HT29 colon) greater than 100 µM, a TGI (T-47D breast) greater than 100 µM and a TGI (MDA-N) greater than 100 µM. The TGI (SN12C renal) was greater than 100 µM, the TGI (HL-60(TB) leukemia) was greater than 68.4 µM and the TGI (M14 melanoma) was greater than 100 µM. The TGI (NCI-H226 lung) was greater than 100 µM and the TGI (786-0 renal) was greater than 100 µM.
